Reference: ChEMBL document CHEMBL1765078, “17-Hydroxycyclooctatin, a fused 5-8-5 ring diterpene, from Streptomyces sp. MTE4a” (J Nat Prod, 2011)
Active and inactive are the calls of the source. The calls are words filed in the database; no cut-off is given here.

System: Staphylococcus aureus
Test: Antibacterial activity against Staphylococcus aureus at 1 mg/ml
Assay type: functional, organism-based

C[C@H](CO)[C@H]1CC[C@]2(C)C[C@@H]3[C@H](CO)C[C@@H](O)[C@H]3[C@@](C)(O)C/C=C/12
Activity: inactive
